Experimental findings from US10076520B2, “Use of tyrosine kinase inhibitor in cancer treatment” (THE REGENTS OF THE UNIVERSITY OF COLORADO, A BODY CORPORATE, priority 2013, dated 2018) are described below.

One experiment concerns PKCδ. The experiment can be described thus: Immunoblot of PKCδ tyrosine phosphorylation in ParC5 cells treated with hydrogen peroxide. Type of experiment: cell-based, rat. Particulars: ParC5 cells pre-treated 30 mins prior to hydrogen peroxide. In general terms: A western blot detects proteins with antibodies after separation by electrophoresis.
The next experiment relates to ParC5 cells. The experiment can be described thus: Irradiation-induced apoptosis (caspase-3 activity) in ParC5 cells. It is filed as cell-based, rat. Conditions: parC5 cells pre-treated 30 mins prior to 10 Gy irradiation; harvested after 18 hrs; p<0.05. Here is the method: Cells were harvested after an additional 18 hrs and casapase 3 activity were measured.

For the compound `Cc1ccc(NC(=O)c2ccc(CN3CCN(C)CC3)cc2)cc1Nc1nccc(-c2cccnc2)n1` [imatinib], the “phosphorylation of PKCδ at Y64, Y155 and Y311” value with PKCδ is listed as “inhibited phosphorylation of PKCδ at Y155 only”. In the experiment on ParC5 cells, the “apoptosis (caspase 3 activity)” value is recorded as “significant protection from apoptosis”.
